Test system: Bmi-1
Assay: Sandwich ELISA Assay (Bmi-1 ELISA) in HT-1080 cells
Type: cell-based
Method in brief: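 Bmi-1 in lysates was measured by a three-antibody ELISA with TMB, OD450 minus OD570 reference, interpolated on a GST-tagged recombinant Bmi-1 standard curve, 0-8000 pg/mL. Lysates came from HT-1080 cells treated 40-48 h with compound, final DMSO 0.5%.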

SMILES | EC50 [nM]
FC(F)(F)c1nc2ccccn2c1-c1nccc(Nc2ccc(Br)cc2)n1 [Cpd 10, N-(4-bromophenyl)-2-[2-(trifluoromethyl)imidazo[1,2-a]pyridin-3-yl]pyrimidin-4-amine] | 10 to 100
Cc1nc2cc(Cl)ccc2n1-c1nc(N)cc(Nc2ccc(OC(F)F)cc2)n1 [Cpd 99, 2-(5-chloro-2-methyl-1H-benzimidazol-1-yl)-N-[4-(difluoromethoxy)phenyl]pyrimidine-4,6-diamine] | 100 to 3000
FC(F)Oc1ccc(Nc2ccnc(-c3c(C(F)(F)F)nc4ccc(Cl)cn34)n2)cc1 [Cpd 16, 2-[6-chloro-2-(trifluoromethyl)imidazo[1,2-a]pyridin-3-yl]-N-[4-(difluoromethoxy)phenyl]pyrimidin-4-amine] | 10 to 100
Cc1nc2ccc(F)cc2n1-c1nc(N)c(F)c(Nc2ccc(C(F)(F)F)nc2)n1 [Cpd 183, 5-fluoro-2-(6-fluoro-2-methyl-1H-benzimidazol-1-yl)-N-[6-(trifluoromethyl)pyridin-3-yl]pyrimidine-4,6-diamine] | 10 to 100
COc1ccc(Nc2cc(N)nc(-n3c(C)nc4ccc(F)cc43)n2)cc1 [Cpd 265, 2-(6-fluoro-2-methyl-1H-benzimidazol-1-yl)-N-(4-methoxyphenyl)pyrimidine-4,6-diamine] | 1 to 10
FC(F)(F)c1nc2cnccn2c1-c1nccc(Nc2ccc(Cl)cc2)n1 [Cpd 47, N-(4-chlorophenyl)-2-[2-(trifluoromethyl)imidazo[1,2-a]pyrazin-3-yl]pyrimidin-4-amine] | 100 to 3000
Cc1nc2ccccc2n1-c1nc(N)cc(Nc2ccc(Cl)cc2)n1 [Cpd 209, N-(4-chlorophenyl)-2-(2-methyl-1H-benzimidazol-1-yl)pyrimidine-4,6-diamine] | 10 to 100
COc1ccc2nc(C(F)(F)F)c(-c3nccc(Nc4ccc(OC(F)(F)F)cc4)n3)n2c1 [Cpd 49, 2-[6-methoxy-2-(trifluoromethyl)imidazo[1,2-a]pyridin-3-yl]-N-[4-(trifluoromethoxy)phenyl]pyrimidin-4-amine] | 100 to 3000
CCc1nc2ccccc2n1-c1nc(N)c(Cl)c(Nc2ccc(C(F)(F)F)cc2)n1 [Cpd 167, 5-chloro-2-(2-ethyl-1H-benzimidazol-1-yl)-N-[4-(trifluoromethyl)phenyl]pyrimidine-4,6-diamine] | 10 to 100
FC(F)(F)c1nc2ccccn2c1-c1nccc(Nc2ccc(Cl)cc2)n1 [Cpd 8, N-(4-chlorophenyl)-2-[2-(trifluoromethyl)imidazo[1,2-a]pyridin-3-yl]pyrimidin-4-amine] | 100 to 3000
Nc1cc(Nc2ccc(C(F)(F)F)cc2)nc(-n2c(C3CC3)nc3cc(F)ccc32)n1 [Cpd 83, 2-(2-cyclopropyl-5-fluoro-1H-benzimidazol-1-yl)-N-[4-(trifluoromethyl)phenyl]pyrimidine-4,6-diamine] | 10 to 100
Cc1ccc(Nc2ccnc(-c3c(C(F)(F)F)nc4ccc(F)cn34)n2)cc1 [Cpd 21, 2-[6-fluoro-2-(trifluoromethyl)imidazo[1,2-a]pyridin-3-yl]-N-(4-methylphenyl)pyrimidin-4-amine] | 1 to 10
Cc1nc2ccc(Cl)cc2n1-c1nc(N)cc(Nc2ccc(OC(F)F)cc2)n1 [Cpd 97, 2-(6-chloro-2-methyl-1H-benzimidazol-1-yl)-N-[4-(difluoromethoxy)phenyl]pyrimidine-4,6-diamine] | 10 to 100
Cc1ccc(Nc2nc(-n3c(C)nc4cc(C#N)ccc43)nc(N)c2F)cc1 [Cpd 227, 1-{4-amino-5-fluoro-6-[(4-methylphenyl)amino]pyrimidin-2-yl}-2-methyl-1H-benzimidazole-5-carbonitrile] | 10 to 100
COc1ccc(Nc2nc(-n3c(C)nc4ccc(C#N)cc43)nc(N)c2F)cc1 [Cpd 225, 1-{4-amino-5-fluoro-6-[(4-methoxyphenyl)amino]pyrimidin-2-yl}-2-methyl-1H-benzimidazole-6-carbonitrile] | 10 to 100
COc1ccc2nc(C)n(-c3nc(N)c(F)c(Nc4ccc5c(c4)OCO5)n3)c2c1 [Cpd 250, N-(1,3-benzodioxol-5-yl)-5-fluoro-2-(6-methoxy-2-methyl-1H-benzimidazol-1-yl)pyrimidine-4,6-diamine] | 10 to 100
Cc1ccc(Nc2nc(-n3c(C)nc4cc(F)ccc43)nc(N)c2F)cc1 [Cpd 281, 5-fluoro-2-(5-fluoro-2-methyl-1H-benzimidazol-1-yl)-N-(4-methylphenyl)pyrimidine-4,6-diamine] | 1 to 10
COCc1nc2ccccc2n1-c1nc(N)c(F)c(Nc2ccc(OC)cc2)n1 [Cpd 218, 5-fluoro-2-[2-(methoxymethyl)-1H-benzimidazol-1-yl]-N-(4-methoxyphenyl)pyrimidine-4,6-diamine] | 1 to 10
Nc1nc(-n2c(C3CC3)nc3ccccc32)nc(Nc2ccc(Cl)cc2)c1F [Cpd 279, N-(4-chlorophenyl)-2-(2-cyclopropyl-1H-benzimidazol-1-yl)-5-fluoropyrimidine-4,6-diamine] | 10 to 100

SMILES | EC50 [nM]
Cc1cccc(Nc2nc(-n3c(C)nc4ccccc43)nc(N)c2F)c1 [Cpd 194, 5-fluoro-2-(2-methyl-1H-benzimidazol-1-yl)-N-(3-methylphenyl)pyrimidine-4,6-diamine] | 100 to 3000
Cc1nc2cc(Cl)ccc2n1-c1nc(N)c(F)c(Nc2ccc(C(F)(F)F)cc2)n1 [Cpd 158, 2-(5-chloro-2-methyl-1H-benzimidazol-1-yl)-5-fluoro-N-[4-(trifluoromethyl)phenyl]pyrimidine-4,6-diamine] | 100 to 3000
Cc1ccc(Nc2nc(-n3c(C)nc4ccccc43)nc(N)c2F)cc1 [Cpd 199, 5-fluoro-2-(2-methyl-1H-benzimidazol-1-yl)-N-(4-methylphenyl)pyrimidine-4,6-diamine] | 1 to 10
FC(F)(F)c1nc2ccc(Cl)cn2c1-c1nccc(Nc2ccc(Br)cc2)n1 [Cpd 15, N-(4-bromophenyl)-2-[6-chloro-2-(trifluoromethyl)imidazo[1,2-a]pyridin-3-yl]pyrimidin-4-amine] | 10 to 100
COCCNc1cc(Nc2ccc(OC(F)F)cc2)nc(-n2c(C)nc3ccccc32)n1 [Cpd 59, N^4-[4-(difluoromethoxy)phenyl]-N^6-(2-methoxyethyl)-2-(2-methyl-1H-benzimidazol-1-yl)pyrimidine-4,6-diamine] | 100 to 3000
COc1ccc(Nc2ccnc(-c3c(C(F)(F)F)nc4ccc(F)cn34)n2)cc1 [Cpd 22, 2-[6-fluoro-2-(trifluoromethyl)imidazo[1,2-a]pyridin-3-yl]-N-(4-methoxyphenyl)pyrimidin-4-amine] | 10 to 100
CCc1nc2ccccc2n1-c1nc(N)c(F)c(Nc2ccc3c(c2)OCO3)n1 [Cpd 273, N-(1,3-benzodioxol-5-yl)-2-(2-ethyl-1H-benzimidazol-1-yl)-5-fluoropyrimidine-4,6-diamine] | 1 to 10
Cc1nc2ccc(F)cc2n1-c1nc(N)c(F)c(Nc2ccc(C#N)cc2)n1 [Cpd 192, 4-{[6-amino-5-fluoro-2-(6-fluoro-2-methyl-1H-benzimidazol-1-yl)pyrimidin-4-yl]amino}benzonitrile] | 100 to 3000
COCc1nc2ccccc2n1-c1nc(N)c(F)c(Nc2ccc(C(F)(F)F)cc2)n1 [Cpd 220, 5-fluoro-2-[2-(methoxymethyl)-1H-benzimidazol-1-yl]-N-[4-(trifluoromethyl)phenyl]pyrimidine-4,6-diamine] | 10 to 100
Nc1nc(-c2c(C(F)(F)F)nc3ccc(F)cn23)nc(Nc2ccc(C(F)(F)F)cc2)c1F [Cpd 178, 5-fluoro-2-[6-fluoro-2-(trifluoromethyl)imidazo[1,2-a]pyridin-3-yl]-N-[4-(trifluoromethyl)phenyl]pyrimidine-4,6-diamine] | 100 to 3000
COc1ccc(Nc2nc(-n3c(C)nc4ccc(OC)cc43)nc(N)c2F)cc1 [Cpd 249, 5-fluoro-2-(6-methoxy-2-methyl-1H-benzimidazol-1-yl)-N-(4-methoxyphenyl)pyrimidine-4,6-diamine] | 10 to 100
Cc1nc2ccccc2n1-c1nc(N)c(F)c(Nc2ccc(OC(F)F)c(F)c2)n1 [Cpd 119, N-[4-(difluoromethoxy)-3-fluorophenyl]-5-fluoro-2-(2-methyl-1H-benzimidazol-1-yl)pyrimidine-4,6-diamine] | 10 to 100
CCc1nc2ccccc2n1-c1nc(N)c(F)c(Nc2ccc(OC)cc2)n1 [Cpd 271, 2-(2-ethyl-1H-benzimidazol-1-yl)-5-fluoro-N-(4-methoxyphenyl)pyrimidine-4,6-diamine] | 1 to 10
COc1ccc(Nc2ccnc(-c3c(C(F)(F)F)nc4cnccn34)n2)cc1 [Cpd 45, N-(4-methoxyphenyl)-2-[2-(trifluoromethyl)imidazo[1,2-a]pyrazin-3-yl]pyrimidin-4-amine] | 100 to 3000
Nc1nc(-n2c(C3CC3)nc3ccccc32)nc(Nc2ccc(OC(F)F)cc2)c1F [Cpd 121, 2-(2-cyclopropyl-1H-benzimidazol-1-yl)-N-[4-(difluoromethoxy)phenyl]-5-fluoropyrimidine-4,6-diamine] | 1 to 10
Cc1nc2ncc(Cl)cc2n1-c1nc(N)c(F)c(Nc2ccc(C(F)(F)F)cc2)n1 [Cpd 114, 2-(6-chloro-2-methyl-1H-imidazo[4,5-b]pyridin-1-yl)-5-fluoro-N-[4-(trifluoromethyl)phenyl]pyrimidine-4,6-diamine] | 10 to 100
COc1ccc2nc(C)n(-c3nc(N)c(F)c(Nc4ccc(OC(F)F)cc4)n3)c2c1 [Cpd 247, N-[4-(difluoromethoxy)phenyl]-5-fluoro-2-(6-methoxy-2-methyl-1H-benzimidazol-1-yl)pyrimidine-4,6-diamine] | 10 to 100
COc1ccc(Nc2ccnc(-n3c(C)nc4ccccc43)n2)cc1Cl [Cpd 40, N-(3-chloro-4-methoxyphenyl)-2-(2-methyl-1H-benzimidazol-1-yl)pyrimidin-4-amine] | 100 to 3000
Cc1nc2ccccc2n1-c1nc(NCCO)cc(Nc2ccc(OC(F)F)cc2)n1 [Cpd 52, 2-{[6-{[4-(difluoromethoxy)phenyl]amino}-2-(2-methyl-1H-benzimidazol-1-yl)pyrimidin-4-yl]amino}ethanol] | 100 to 3000
